{"source": "patent US7375058B2", "about": "“Herbicidal mixtures based on 3-phenyluracils” (priority 2002, dated 2008)", "key": {"AVEFA": {"tested_on": "AVEFA", "experiment": "Greenhouse post-emergence herbicidal action against AVEFA", "format": "in vivo, Avena fatua", "source_text": "(§1) For the post-emergence treatment, the test plants were first grown to a height of 3 to 20 cm, depending on the plant habit, and only then treated. Here, the herbicidal compositions were suspended or emulsified in water as distribution medium and sprayed using finely distributing nozzles\n(§2) The respective components A and B and/or C were formulated as 10% by weight strength emulsion concentrate and introduced to the spray liquor with the amount of solvent system used for applying the active compound. In the examples, the solvent used was water.\n(§3) The test period extended over 21 days. During this time, the plants were tended, and their response to the treatments with active compound was evaluated.\n(§4) The evaluation for the damage caused by the chemical compositions was carried out using a scale from 0 to 100%, compared to the untreated control plants. Here, 0 means no damage and 100 means complete destruction of the plants.\n(§5) In the examples below, the value E which is to be expected if the activity of the individual compounds is just additive was calculated using the method of S. R. Colby (1967) “Calculating synergistic and antagonistic responses of herbicide combinations”, Weeds 15, p. 22 ff. E=X+Y−([…]) where • X=effect in percent using active compound A at an application rate a; • Y=effect in percent using active compound B at an application rate b; • E=expected effect (in %) of A+B at application rates a+b.\n(§6) If the observed effect is higher than the value E calculated according to Colby, a synergistic effect is present."}, "POLPE": {"tested_on": "POLPE", "experiment": "Greenhouse post-emergence herbicidal action against POLPE", "format": "in vivo, Polygonum persicaria", "settings": "21 days", "source_text": "as §1, §2, §3, §4, §5, §6"}, "BIDPI": {"tested_on": "BIDPI", "experiment": "Greenhouse post-emergence herbicidal action against BIDPI", "format": "in vivo, Bidens pilosa", "source_text": "as §1, §2, §3, §4, §5, §6"}, "ALOMY": {"tested_on": "ALOMY", "experiment": "Greenhouse post-emergence herbicidal action against ALOMY", "format": "in vivo, Alopecurus myosuroides", "settings": "21 days", "source_text": "as §1, §2, §3, §4, §5, §6"}, "ECHCG": {"tested_on": "ECHCG", "experiment": "Greenhouse post-emergence herbicidal action against ECHCG", "format": "in vivo, Echinochloa crus-galli", "source_text": "as §1, §2, §3, §4, §5, §6"}, "GALAP": {"tested_on": "GALAP", "experiment": "Greenhouse post-emergence herbicidal action against GALAP", "format": "in vivo, Galium aparine", "source_text": "as §1, §2, §3, §4, §5, §6"}, "SETFA": {"tested_on": "SETFA", "experiment": "Greenhouse post-emergence herbicidal action against SETFA", "format": "in vivo, Setaria faberii", "source_text": "as §1, §2, §3, §4, §5, §6"}, "BRAPL": {"tested_on": "BRAPL", "experiment": "Greenhouse post-emergence herbicidal action against BRAPL", "format": "in vivo, Brachiaria plantaginea", "settings": "21 days", "source_text": "as §1, §2, §3, §4, §5, §6"}, "[1]": {"settings": "I.1 1.95 g/ha and/or b10.1 125 g/ha"}, "[2]": {"settings": "I.1 3.91 g/ha and/or b10.1 250 g/ha"}, "[3]": {"settings": "I.14 0.49 g/ha and/or b11.1 62.5 g/ha"}, "[4]": {"settings": "I.14 0.98 g/ha and/or b11.1 125 g/ha"}, "[5]": {"settings": "application rate g/ha: I.14 0.49, b2.3 0.98"}, "[6]": {"settings": "application rate g/ha: I.14 0.98, b2.3 1.95"}, "[7]": {"settings": "I.14 0.49 g/ha and/or b10.3 62.5 g/ha"}, "[8]": {"settings": "I.14 0.98 g/ha and/or b10.3 125 g/ha"}}, "data": [{"smiles": "CCNc1nc(Cl)nc(NC(C)C)n1", "note": "[b3.1, atrazine, reference compound]", "values": [{"measurement": "Herbicidal action against AVEFA found", "setting": "AVEFA; 21 days, application rate g/ha: I.7 1.95, b3.1 62.5", "value": 0, "unit": "%"}, {"measurement": "Herbicidal action against AVEFA found", "setting": "AVEFA; 21 days, application rate g/ha: I.7 3.91, b3.1 125", "value": 0, "unit": "%"}, {"measurement": "Herbicidal action against POLPE found", "setting": "POLPE; application rate g/ha: I.7 1.95, b3.1 62.5", "value": 50, "unit": "%"}, {"measurement": "Herbicidal action against POLPE found", "setting": "POLPE; application rate g/ha: I.7 3.91, b3.1 125", "value": 60, "unit": "%"}]}, {"smiles": "CCc1cnc(C2=NC(C)(C(C)C)C(=O)N2)c(C(=O)O)c1", "note": "(centres unmarked) [b2.2, imazethapyr, reference compound]", "values": [{"measurement": "Herbicidal action against BIDPI found", "setting": "BIDPI; 21 days, application rate g/ha: I.8 0.49, b2.2 7.81", "value": 20, "unit": "%"}, {"measurement": "Herbicidal action against BIDPI found", "setting": "BIDPI; 21 days, application rate g/ha: I.8 0.98, b2.2 15.63", "value": 20, "unit": "%"}]}, {"smiles": "COCc1cnc(C2=NC(C)(C(C)C)C(=O)N2)c(C(=O)O)c1", "note": "(centres unmarked) [b2.1, imazamox, reference compound]", "values": [{"measurement": "Herbicidal action against ALOMY found", "setting": "ALOMY; application rate g/ha: I.8 0.49, b2.1 7.81", "value": 40, "unit": "%"}, {"measurement": "Herbicidal action against ALOMY found", "setting": "ALOMY; application rate g/ha: I.8 0.98, b2.1 15.63", "value": 70, "unit": "%"}]}, {"smiles": "CCOC(=O)/C(Cl)=C/c1cc(N2C(=O)C3=C(CCCC3)C2=O)ccc1Cl", "note": "[b4.1, cinidon-ethyl, reference compound]", "values": [{"measurement": "Herbicidal action against POLPE found", "setting": "POLPE; application rate g/ha: I.1 0.49, b4.1 0.98", "value": 40, "unit": "%"}, {"measurement": "Herbicidal action against POLPE found", "setting": "POLPE; application rate g/ha: I.1 0.98, b4.1 1.95", "value": 50, "unit": "%"}]}, {"smiles": "CCC(CC)Nc1c([N+](=O)[O-])cc(C)c(C)c1[N+](=O)[O-]", "note": "[b9.1, pendimethalin, reference compound]", "values": [{"measurement": "Herbicidal action against AVEFA found", "setting": "AVEFA; 21 days, application rate g/ha: I.1 0.98, b9.1 125", "value": 10, "unit": "%"}, {"measurement": "Herbicidal action against AVEFA found", "setting": "AVEFA; 21 days, application rate g/ha: I.1 1.95, b9.1 250", "value": 20, "unit": "%"}]}, {"smiles": "COc1c(Cl)ccc(Cl)c1C(=O)O", "note": "[b13.2, dicamba, reference compound]", "values": [{"measurement": "Herbicidal action against ECHCG found", "setting": "ECHCG; I.14 1.95 g/ha and/or b13.2 125 g/ha", "value": 0, "unit": "%"}, {"measurement": "Herbicidal action against ECHCG found", "setting": "ECHCG; I.14 3.91 g/ha and/or b13.2 250 g/ha", "value": 30, "unit": "%"}]}, {"smiles": "COC[C@H](C)N(C(=O)CCl)c1c(C)csc1C", "note": "[b10.1, dimethenamid-P, reference compound]", "values": [{"measurement": "Herbicidal action against BIDPI found", "setting": "BIDPI; [1]", "value": 25, "unit": "%"}, {"measurement": "Herbicidal action against BIDPI found", "setting": "BIDPI; [2]", "value": 25, "unit": "%"}, {"measurement": "Herbicidal action against AVEFA found", "setting": "AVEFA; [1]", "value": 30, "unit": "%"}, {"measurement": "Herbicidal action against AVEFA found", "setting": "AVEFA; [2]", "value": 30, "unit": "%"}]}, {"smiles": "CCOCN(C(=O)CCl)c1c(C)cccc1CC", "note": "[b10.2, acetochlor, reference compound]", "values": [{"measurement": "Herbicidal action against BIDPI found", "setting": "BIDPI; 21 days, application rate g/ha: I.14 1.95, b10.2 250", "value": 30, "unit": "%"}, {"measurement": "Herbicidal action against BIDPI found", "setting": "BIDPI; 21 days, application rate g/ha: I.14 3.91, b10.2 500", "value": 70, "unit": "%"}]}, {"smiles": "CCC(C)(CC)c1cc(NC(=O)c2c(OC)cccc2OC)on1", "note": "[b11.1, isoxaben, reference compound]", "values": [{"measurement": "Herbicidal action against GALAP found", "setting": "GALAP; [3]", "value": 0, "unit": "%"}, {"measurement": "Herbicidal action against GALAP found", "setting": "GALAP; [4]", "value": 0, "unit": "%"}, {"measurement": "Herbicidal action against SETFA found", "setting": "SETFA; [3]", "value": 0, "unit": "%"}, {"measurement": "Herbicidal action against SETFA found", "setting": "SETFA; [4]", "value": 10, "unit": "%"}]}, {"smiles": "COc1cc(OC)nc(NC(=O)NS(=O)(=O)c2ncccc2C(=O)N(C)C)n1", "note": "[b2.3, nicosulfuron, reference compound]", "values": [{"measurement": "Herbicidal action against ALOMY found", "setting": "ALOMY; [5]", "value": 50, "unit": "%"}, {"measurement": "Herbicidal action against ALOMY found", "setting": "ALOMY; [6]", "value": 60, "unit": "%"}, {"measurement": "Herbicidal action against BRAPL found", "setting": "BRAPL; [5]", "value": 70, "unit": "%"}, {"measurement": "Herbicidal action against BRAPL found", "setting": "BRAPL; [6]", "value": 70, "unit": "%"}]}, {"smiles": "CCc1cccc(C)c1N(C(=O)CCl)[C@@H](C)COC", "note": "[b10.3, S-metolachlor, reference compound]", "values": [{"measurement": "Herbicidal action against GALAP found", "setting": "GALAP; [7]", "value": 0, "unit": "%"}, {"measurement": "Herbicidal action against GALAP found", "setting": "GALAP; [8]", "value": 25, "unit": "%"}, {"measurement": "Herbicidal action against SETFA found", "setting": "SETFA; [7]", "value": 30, "unit": "%"}, {"measurement": "Herbicidal action against SETFA found", "setting": "SETFA; [8]", "value": 60, "unit": "%"}]}]}
